“And” between values parts separate entries of the source, which are not always exact repeats. Identical values can stand only once. Like-named read-outs stand apart in the source and are kept apart here.
Assays:
[1] = tested on: complement; assay: Inhibition of complement mediated hemolysis; assay type: cell-based; conditions: read-out: Inhibition of complement mediated hemolysis (%)
Protocol: The complement mediated hemolysis is widely used as a means to determine the titration of complement. The principle of this method is based on the fact that hemolysis is caused by the activation of complement, when the latter is added to a complex (immune complex) of erythrocytes and the autibody thereof. The degree of hemolysis varies in proportion to the amount of complement added. Therefore, when a known amount of complement admixed with a C1 esterase inhibitor is used, the hemolysis must be suppressed in proportion to the inhibitory activity.
The anti-C1 esterase (C1r, C1s) activity was determined according to the method of Okamura et al. [K. Okamura, M. Muramatsu and B. Fujii, Biochem. Biophys. […] The inhibition of complement mediated hemolysis was determined according to the method of Baker et al. [B. R. Baker and E. H. Erickson, J. Med. Chem., 12, 408-414 (1969)].

[2] = biological target: T1, C1s (Homo sapiens, UniProt P09871); assay: Anti-C1 esterase activity, C1s (hydrolysis of ATEE); assay type: biochemical
T1 sequence (P09871 438-688 limits assumed): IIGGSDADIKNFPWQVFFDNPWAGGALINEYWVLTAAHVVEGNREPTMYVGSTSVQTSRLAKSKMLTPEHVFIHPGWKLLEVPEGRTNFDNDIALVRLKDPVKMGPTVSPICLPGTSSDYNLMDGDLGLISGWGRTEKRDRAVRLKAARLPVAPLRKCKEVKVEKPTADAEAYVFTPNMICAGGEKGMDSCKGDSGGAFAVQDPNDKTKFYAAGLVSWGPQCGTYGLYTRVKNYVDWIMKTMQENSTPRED
T1 sequence (P09871 16-437 partner limits assumed): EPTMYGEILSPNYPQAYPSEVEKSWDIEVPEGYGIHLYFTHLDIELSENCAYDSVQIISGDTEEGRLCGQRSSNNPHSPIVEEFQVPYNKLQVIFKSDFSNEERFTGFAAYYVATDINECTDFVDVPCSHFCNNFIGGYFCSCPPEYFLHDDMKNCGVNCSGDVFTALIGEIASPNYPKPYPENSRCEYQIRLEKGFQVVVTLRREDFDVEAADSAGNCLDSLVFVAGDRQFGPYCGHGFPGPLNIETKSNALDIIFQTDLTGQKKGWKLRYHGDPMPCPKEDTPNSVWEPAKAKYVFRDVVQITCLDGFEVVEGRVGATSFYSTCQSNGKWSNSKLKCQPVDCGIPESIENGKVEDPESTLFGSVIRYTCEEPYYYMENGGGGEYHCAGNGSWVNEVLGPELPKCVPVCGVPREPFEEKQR
Protocol: The anti-C1 esterase (C1r, C1s) activity was determined according to the method of Okamura et al. [K. Okamura, M. Muramatsu and B. Fujii, Biochem. Biophys. Acta, 295, 252-257 (1973)]. The inhibition of complement mediated hemolysis was determined according to the method of Baker et al. [B. R. Baker and E. H. Erickson, J. Med. Chem., 12, 408-414 (1969)]. The figures in Table 2 have the following meanings:
C1s: Molar concentration of the test compound which inhibits 50% of the ability of C1s to hydrolyse ATEE (acetyltyrosin ethyl ester).

[3] = biological target: Thrombin (Bos taurus, UniProt P00735); assay: Anti-thrombin activity (hydrolysis of TAME); assay type: biochemical
Protocol: (§1) The anti-trypsin, anti-plasmin, anti-kallikrein and anti-thrombin activities were determined according to the method of Muramatsu et al. [M. Muramatsu, T. Onishi, S. Makino, Y. Hayashi and S. Fujii, J. of Biochem., 58, 214 (1965)]. The data summarized in Table 1 are expressed in terms of molar concentration (id50) of the test compound which inhibits 50% of the activity of each enzyme to hydrolyze TAME (tosylarginine methyl ester). The compound No. corresponds to the compound number shown in Examples.

[4] = biological target: T2, C1r (Homo sapiens, UniProt P00736); assay: Anti-C1 esterase activity, C1r (hydrolysis of AAME); assay type: biochemical; conditions: for IC50: molar concentration inhibiting 50% of AAME hydrolysis, read-out: Anti-C1 activity, C1r id50; for inhibition at 10 µM: at 1×10^-5 M, read-out: Anti-C1 activity, C1r percent inhibition
T2 sequence (P00736 464-705 limits assumed): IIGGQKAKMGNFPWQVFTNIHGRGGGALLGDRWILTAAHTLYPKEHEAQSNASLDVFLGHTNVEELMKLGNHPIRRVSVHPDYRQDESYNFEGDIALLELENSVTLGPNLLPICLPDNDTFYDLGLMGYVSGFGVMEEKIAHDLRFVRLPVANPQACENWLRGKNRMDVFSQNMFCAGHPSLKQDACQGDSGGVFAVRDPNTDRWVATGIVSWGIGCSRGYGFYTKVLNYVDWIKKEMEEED
T2 sequence (P00736 18-463 partner limits assumed): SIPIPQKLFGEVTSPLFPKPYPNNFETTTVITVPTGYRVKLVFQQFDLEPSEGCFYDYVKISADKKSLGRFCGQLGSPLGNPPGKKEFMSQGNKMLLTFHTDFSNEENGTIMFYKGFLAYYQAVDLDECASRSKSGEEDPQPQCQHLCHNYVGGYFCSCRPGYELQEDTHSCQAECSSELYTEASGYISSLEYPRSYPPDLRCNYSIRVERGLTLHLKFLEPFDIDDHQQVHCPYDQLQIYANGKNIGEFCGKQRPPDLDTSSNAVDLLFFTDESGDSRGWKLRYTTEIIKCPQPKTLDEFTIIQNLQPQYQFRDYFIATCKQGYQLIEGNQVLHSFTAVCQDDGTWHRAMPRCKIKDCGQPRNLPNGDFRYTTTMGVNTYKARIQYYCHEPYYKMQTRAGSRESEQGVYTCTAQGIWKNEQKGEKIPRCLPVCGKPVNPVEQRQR
Protocol: The anti-C1 esterase (C1r, C1s) activity was determined according to the method of Okamura et al. [K. Okamura, M. Muramatsu and B. Fujii, Biochem. Biophys. […] The figures in Table 2 have the following meanings:
C1r: Molar concentration of the test compound which inhibits 50% of the ability of C1r to hydrolyse AAME (acetylarginin methyl ester) (id50).

[5] = biological target: T3, Trypsin (Bos taurus, UniProt P00760); assay: Anti-trypsin activity (hydrolysis of TAME); assay type: biochemical; conditions: for IC50: molar concentration inhibiting 50% of TAME hydrolysis, read-out: id50, Trypsin
T3 sequence (P00760 24-246): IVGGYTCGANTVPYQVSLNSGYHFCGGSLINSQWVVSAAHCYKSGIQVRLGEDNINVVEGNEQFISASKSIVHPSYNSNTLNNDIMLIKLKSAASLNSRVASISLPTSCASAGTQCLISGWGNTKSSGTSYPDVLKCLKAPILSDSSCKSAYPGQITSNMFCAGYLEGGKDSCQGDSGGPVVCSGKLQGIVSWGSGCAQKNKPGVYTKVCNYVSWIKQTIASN
Protocol: as §1

[6] = biological target: Plasmin (Homo sapiens, UniProt P00747); assay: Anti-plasmin activity (hydrolysis of TAME); assay type: biochemical; conditions: molar concentration inhibiting 50% of TAME hydrolysis; read-out: id50, Plasmin
Protocol: as §1

[7] = Toxicity, median lethal dose (LD50); conditions: in vivo
[8] = tested on: Forssman shock; assay: Forssman shock (survival time after hemolysin); assay type: in vivo, guinea pig (male Hartlay); conditions: for time elapsed until death, average: control average 361 sec.
Source text: Quite different from other animals, guinea pig has on the surface of its organs a specific antigen called Forssman antigen which specifically reacts with the antibody of sheep erythrocyte. Forssman shock is based on the above principle and is a shock caused by the administration of antibody of sheep erythrocyte to a guinea pig. The Forssman shock was investigated in detail by many researches and it was definitely shown that this shock is a model case where the complement plays the principal part and that the shock is associated with a classical pathway in which the complement system is activated progressively starting from C1. Since the participation of complement in autoimmune diseases has been established, the Forssman shock can be said to be a useful means for testing a drug for autoimmune diseases. A drug effective for the treatment of Forssman shock is useful as a drug of autoimmune diseases. [Anti-trypsin, anti-plasmin, anti-kallikrein and anti-thrombin activities]
The experiment was performed according to the method of I. G. Offerness et al. [Biochem. Pharmacol., 27 (14), 1873-1878 (1978)]. Male Hartlay guinea pig of about 300 g in body weight was used. Each guinea pig of the control group was administered intravenously with 0.5 ml (minimum dose to cause the shock) of hemolysin (commercial hemolysin, 5,000 U as assayed by the method of Ogata) and the time elapsed until death was observed. For the test group, each guinea pig was administered intravenously with the test compound 5 minutes before the administration of hemolysin and the time (second) elapsed until death was observed.

Sequence of Plasmin (P00747 581-810 limits assumed): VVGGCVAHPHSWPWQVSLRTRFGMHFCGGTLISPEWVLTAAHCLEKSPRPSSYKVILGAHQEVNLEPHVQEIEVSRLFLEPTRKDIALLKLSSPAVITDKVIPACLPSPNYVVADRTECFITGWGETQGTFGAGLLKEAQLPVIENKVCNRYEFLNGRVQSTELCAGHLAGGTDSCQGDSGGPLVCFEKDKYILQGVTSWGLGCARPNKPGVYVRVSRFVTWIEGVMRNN
Sequence of Plasmin (P00747 97-580 partner limits assumed): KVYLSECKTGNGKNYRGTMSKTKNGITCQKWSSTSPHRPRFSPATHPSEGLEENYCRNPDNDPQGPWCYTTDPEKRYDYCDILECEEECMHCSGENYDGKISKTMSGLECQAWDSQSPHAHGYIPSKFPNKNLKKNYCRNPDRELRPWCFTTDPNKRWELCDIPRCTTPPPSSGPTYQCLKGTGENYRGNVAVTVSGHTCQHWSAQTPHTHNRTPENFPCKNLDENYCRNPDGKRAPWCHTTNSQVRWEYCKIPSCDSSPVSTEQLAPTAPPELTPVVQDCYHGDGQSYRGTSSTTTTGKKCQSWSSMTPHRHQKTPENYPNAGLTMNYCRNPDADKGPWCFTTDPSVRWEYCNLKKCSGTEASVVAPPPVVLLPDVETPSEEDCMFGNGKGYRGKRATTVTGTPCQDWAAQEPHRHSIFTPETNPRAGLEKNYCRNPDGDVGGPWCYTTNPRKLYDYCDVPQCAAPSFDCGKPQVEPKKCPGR

Compound | inhibition at 100 µM ([1]; 1 × 10^-4 M) [%] | inhibition at 10 µM ([1]; 1 × 10^-5 M) [%] | inhibition at 1 µM ([1]; 1 × 10^-6 M) [%] | inhibition at 0.1 µM ([1]; 1 × 10^-7 M) [%] | IC50 [3] [nM] | IC50 [4] [nM] | IC50 [5] [nM] | IC50 [6] [nM] | inhibition at 10 µM [4] [%] | also measured
N=C(N)C=Cc1ccc(OC(=O)c2ccccc2)cc1 [Compound 12, 4-(β-amidinoethenyl)-phenyl benzoate] | 100 | 100 | 54 | 11 | 3000 | 800 | 600 | 2000 |  | IC50 [2]: 300 nM
CC(C)Cc1ccc(C(C)C(=O)Oc2ccc(C=CC(=N)N)cc2)cc1 (stereo not drawn) [Compound 14] | 0 | 74 | 10 | 0 | 8000 |  | 9000 | 8000 | 38 | 
N=C(N)C=Cc1ccc(OC(=O)CCc2ccccc2)cc1 [Compound 15] |  | 10 |  | 0 | > 10000 |  | 2000 | > 10000 | 10 | inhibition at 1 µM [1]: 2%; inhibition at 100 µM [1]: 80%
Cc1ccc(C(=O)Oc2ccc(C=CC(=N)N)cc2)cc1 [Compound 20] | 97 | 75 | 38 | 17 | > 10000 | 1000 | 30 | 4000 |  | 
CC(C)(C)c1ccc(C(=O)Oc2ccc(C=CC(=N)N)cc2)cc1 [Compound 22] | 88 | 76 | 25 | 11 | 3000 | 5000 | 5000 | 3000 |  | 
N=C(N)C=Cc1ccc(OC(=O)c2ccc(OCc3ccccc3)cc2)cc1 [Compound 26] | 38 | 14 | 6 | 0 | > 10000 |  | 200 | > 10000 | 37 | 
CSc1ccc(C(=O)Oc2ccc(C=CC(=N)N)cc2)cc1 [Compound 28] | 97 | 71 | 34 |  | 3000 | 900 |  | 1000 |  | inhibition at 0.1 µM [1]: 23%; inhibition at 10 µM ([5]; at 1×10^-5 M, read-out: percentage inhibition, Trypsin): 26%
N=C(N)C=Cc1ccc(OC(=O)c2ccc(C=O)cc2)cc1 [Compound 30] | 99 | 94 | 62 |  | 600 | 1000 | 4000 | 600 |  | inhibition at 0.1 µM [1]: 45%
CN(C)c1ccc(C(=O)Oc2ccc(C=CC(=N)N)cc2)cc1 [Compound 32] | 73 | 80 | 50 | 32 | > 10000 | 10000 | 1000 | > 10000 |  | 
N=C(N)C=Cc1ccc(OC(=O)c2ccc(CN)cc2)cc1 [Compound 34] | 100 | 99 | 99 | 86 |  |  |  |  |  | LD50 ([7]; ip): 200 mg/kg; LD50 ([7]; po): 2500 mg/kg
N=C(N)C=Cc1ccc(OC(=O)c2ccc(NC(=N)N)cc2)cc1 [Compound 35, 4-(β-amidinoethenyl)phenyl 4-guanidinobenzoate] |  |  |  |  | 1000 | 4000 | 20 | 900 |  | inhibition at 0.1 µM [1]: 46%; inhibition at 1 µM [1]: 97%; inhibition at 10 µM [1]: 100%; inhibition at 100 µM [1]: 100%; LD50 ([7]; ip): 133 mg/kg; LD50 ([7]; po): 1200 mg/kg; IC50 ([2]; molar concentration inhibiting 50% of ATEE hydrolysis, read-out: Anti-C1 activity, C1s id50): 300 nM; time elapsed until death ([8]; 1 mg/kg i.v. 5 minutes before hemolysin, individual animals 1-4): 490 s and 375 s and 255 s and 285 s; time elapsed until death, average ([8]; 1 mg/kg i.v.): 351 s; survival of individual animal ([8]; 3 mg/kg i.v. 5 minutes before hemolysin, animal 2): Survival; time elapsed until death ([8]; 3 mg/kg i.v. 5 minutes before hemolysin, individual animals): 365 s and 4000 s and 690 s; time elapsed until death, average ([8]; 3 mg/kg i.v.): 528 s
N=C(N)C=Cc1ccc(OC(=O)c2ccc(Cl)cc2)cc1 [Compound 39] | 100 | 99 | 89 | 71 | 2000 | 500 | 2000 | 4000 |  | 
N=C(N)C=Cc1ccc(OC(=O)C=Cc2cccc(C(F)(F)F)c2)cc1 [Compound 41] | 71 | 10 | 10 | 0 | > 10000 |  | 3000 | 3000 | 20 | 
